Reference: patent US20200002275A1, “Dimethyl Farnesyl Amine Oxide And Its Use As Surfactant Or Wetting Agent” (Clariant International Ltd., priority 2017, published 2020)

Legend:
Format in all cases: physicochemical
[1] = Determination of wetting ability by immersion (modified EN 1772:2000); settings: 0.1 wt.-% aqueous solution, room temperature, raw cotton disc, mean of five measurements
Protocol: This measurement was modified based on the European Standard EN 1772:2000. A 500 mL 0.1 wt.-% aqueous solution of test surfactant was prepared. The test solution was kept at room temperature to stabilize for 1 h. A raw cotton disc (30 mm diameter, wfk Testgewebe GmbH), was clamped in a gripper and immersed in the solution. Stopwatch was started at the moment when the lower part of the disc touched the solution and stopped when the disc began to sink of its own accord. The arithmetic mean of five measurements was calculated and recorded as the wetting time.

[2] = Dynamic surface tension measurements, maximum bubble pressure method; settings: deionized water, 25° C.
Protocol: These measurements were conducted with the Krüss PocketDyne BP2100, which utilized the maximum bubble pressure method of surface tension analysis. Surface tension profiles of dimethyl farnesyl amine oxide and diethyl farnesyl amine oxide at the desired concentration were measured in deionized water at 25° C.
The results in table 2 are given in mN/m.

[3] = Solubility in water (observation)
[4] = CMC (critical micelle concentration) and surface tension measurements, Du Noüy ring method; settings: 25° C., Krüss Tensiometer K 100 (Ring)
Protocol: CMC (critical micelle concentration) and surface tension measurements These measurements were conducted with the Krüss Tensiometer K 100 (Ring), which utilized the Du Noüy ring method. Surface tension profiles of the amine oxides were measured at 25° C.

[5] = Measurement of foam creation and decay on a SITA foam tester; settings: 0.01 g/L surfactant solution, 1200 rpm, room temperature, 5 minutes foam creation; listed as dimethyl farnesyl amine oxide
Protocol: This method monitors foam generation and decay at room temperature over time. A surfactant solution of 0.01 g/L was pumped into the SITA foam tester R2000. The speed of the stirring plate was set to 1200 rpm. Foam creation was recorded in a 10 second interval for 5 minutes and decay was recorded in a 30 second interval for 15 minutes at room temperature.

| Wetting time [1] [s] | Surface tension at surface age 20 ms ([2]; 0.3 g/L) [mN/m] | Surface tension at surface age 50 ms ([2]; 0.3 g/L) [mN/m] | Surface tension at surface age 100 ms ([2]; 0.3 g/L) [mN/m] | Surface tension at surface age 200 ms ([2]; 0.3 g/L) [mN/m] | Surface tension at surface age 400 ms ([2]; 0.3 g/L) [mN/m] | Surface tension at surface age 20 ms ([2]; 1.0 g/L) [mN/m] | Surface tension at surface age 50 ms ([2]; 1.0 g/L) [mN/m] | Surface tension at surface age 100 ms ([2]; 1.0 g/L) [mN/m] | Surface tension at surface age 200 ms ([2]; 1.0 g/L) [mN/m] | Surface tension at surface age 400 ms ([2]; 1.0 g/L) [mN/m] | Surface tension at surface age 20 ms ([2]; 3.0 g/L) [mN/m] | Surface tension at surface age 50 ms ([2]; 3.0 g/L) [mN/m] | Surface tension at surface age 100 ms ([2]; 3.0 g/L) [mN/m] | Surface tension at surface age 200 ms ([2]; 3.0 g/L) [mN/m] | Surface tension at surface age 400 ms ([2]; 3.0 g/L) [mN/m] | Structure (SMILES) | other results |
| --- | --- | --- | --- | --- | --- | --- | --- | --- | --- | --- | --- | --- | --- | --- | --- | --- | --- |
| 54 | 66.7 | 65.6 | 64.3 | 65.7 | 65.0 | 60.0 | 62.0 | 57.3 | 56.0 | 54.9 | 55.2 | 52.7 | 51.8 | 50.6 | 51.6 | CC[N+]([O-])(CC)CC=C(C)CCC=C(C)CCC=C(C)C [Diethyl, Diethyl Farnesyl Amine Oxide, reference compound] | solubility in water [3]: very poor |
| 28 | 59.9 | 56.9 | 52.9 | 51.5 | 49.5 | 43.8 | 40.7 | 39.3 | 38.1 | 36.9 | 35.3 | 33.2 | 32.5 | 32.1 | 31.5 | CC(C)=CCC/C(C)=C/CC/C(C)=C/C[N+](C)(C)[O-] [Dimethyl, Dimethyl Farnesyl Amine Oxide] | C20: concentration of surfactant to reduce the surface tension of water by 20 mN/m [4]: 0.018 g/L; CMC [4]: 1.09 g/L; Surface tension [4]: 28.7 mN/m; Foam ability [5]: no foam at all |
